“And” between values parts separate entries of the source, which are not always exact repeats. Equal values may be shown once. Read-outs that look alike come from different tables or passages of the source.

Broadly, the IC50 is the point on the concentration scale where inhibition reaches its midpoint. The IC90 is the concentration needed for an effect of 90%.

Assay [1] relates to ΔMGMT transduced hematopoietic CD34+ progenitor cells. Nature of the assay: Drug resistance: CFU survival after BG plus TMZ or BCNU, ΔMGMT transduced cells. Format: cell-based, human. The conditions noted are these: for IC50 / IC90: Homo sapiens, 10 μM BG 1 hour, then drug 2 hours. From the text:
CD34+ cells were transduced with MFG-ΔMGMT high titer retroviral supernatant obtained as described in Reese et al. 1996. ΔMGMT encodes a mutant form of O-^6 alkylguanine DNA alkyltransferase (ΔAGT) and contains a point mutation which renders the protein resistant to the inhibitor O^6-benzylguanine (BG). CD34+ cells transduced with ΔMGMT are resistant to the drug combinations BG and 1,3bis(2-chloroethly)-1-nitrosourea (BCNU) (Reese et al. 1996) and BG and temozolomide (TMZ) (Reese et al. 1998). The CD34+ cells were transduced as follows: pMFG-wtMGMT or pMFG-ΔMGMT and pSV2neo DNA were cotransfected into the packaging line GP+E86, followed by viral supernatant infection of the amphotropic cell line GP+envAm12 (Markowitz, D. et al. 1988) (Arthur Bank, Columbia University). To increase titer, a supernatant “ping-pong” method was used (Bodine et al. 1990).
(§1) Drug resistance conferred by ΔMGMT To evaluate drug resistance conferred by ΔMGMT, primary CFU survival at the TMZ or BCNU IC50 and IC90 in transduced or untransduced cells was compared. IC50 (or IC90) is the determination of CFU survival after exposure to TMZ or BCNU in the presence of the AGT inhibitor BG. Following a retroviral transduction period of 72-96 hours, hematopoietic CD34+ progenitor cells were pretreated for 1 hour with 10 μM BG followed by increasing concentrations of TMZ or BCNU for 2 hours. Cells were washed free of drug, plated in methylcellulose and 5 μM BG was added to maintain depletion of endogenous AGT. After culture in methylcellulose, the colonies formed were counted as either CFU-GM, BFU-E and CFU-GEMM (referred to as CFU). Individual CFU were collected from 10 independent experiments, each from a different donor.

The subject of assay [2] is untransduced hematopoietic CD34+ progenitor cells. Nature of the assay: Drug resistance: CFU survival after BG plus TMZ or BCNU, untransduced cells. Format: cell-based. The note with it: Homo sapiens, 10 μM BG 1 hour, then drug 2 hours. On the procedure:
as §1

As for `O=NN(CCCl)C(=O)NCCCl` [BCNU, 1,3bis(2-chloroethly)-1-nitrosourea], the “increase in the IC90 after exposure to BG” value in assay [1] (Dexter) is recorded as 2.5 fold; in assay [1] (FN (TMZ n=2, BCNU n=1)), more than 10 fold; in assay [1] (allo MSC (n=1)), more than 6 fold. Also, the “average increase in the IC50 after exposure to BG” value in assay [1] (Dexter (n=2)) was found to be 5.6 fold; in assay [1] (allo MSC (n=1)), 2 fold. For the same molecule, in assay [1] (FN (TMZ n=2, BCNU n=1)), the “average fold increase in the IC50 after exposure to BG” value was determined as 2.8 fold. For the same molecule, the figures for the “fold increase in ΔMGMT/untransduced CFU IC50” value in assay [1] (stroma Allo MSC) and in assay [1] (stroma FN) were 5.6 fold and 2.8 fold, respectively. The “fold increase in ΔMGMT/untransduced CFU IC90” value in assay [1] (stroma Allo MSC) is on record as more than 6 fold; in assay [1] (stroma Dexter), 2.5 fold.

As to `Cn1nnc2c(C(N)=O)ncn2c1=O` [TMZ, temozolomide], the concentration for half-maximal inhibition (IC50) was found to be 25.5 µM in assay [2] (stroma Allo MSC); 9.8 µM in assay [2] (stroma auto MSC); 71 µM in assay [1] (read-out: CFU IC50 ΔMGMT, stroma Allo MSC); 123 µM in assay [1] (read-out: CFU IC50 ΔMGMT, stroma FN); 64 µM in assay [1] (read-out: CFU IC50 ΔMGMT, stroma auto MSC). Besides, the IC90 was 48 µM in assay [2] (stroma Allo MSC); 29 µM in assay [2] (stroma FN); 29 µM in assay [2] (stroma auto MSC); more than 300 µM in assay [1] (read-out: CFU IC90 ΔMGMT, stroma Allo MSC); more than 300 µM in assay [1] (read-out: CFU IC90 ΔMGMT, stroma FN); more than 300 µM in assay [1] (read-out: CFU IC90 ΔMGMT, stroma auto MSC). For the same molecule, the “average fold increase in the IC50 after exposure to BG” value is given as 7.7 fold in assay [1] (FN (TMZ n=2, BCNU n=1)); 5.2 fold in assay [1] (allo MSC and auto MSC (n=4)). Further, the “increase in the IC90 after exposure to BG” value in assay [1] (FN (TMZ n=2, BCNU n=1)) is on record as more than 8.2 fold; in assay [1] (allo MSC and auto MSC (n=4)), more than 9.8 fold. The “fold increase in ΔMGMT/untransduced CFU IC50” value in assay [1] (stroma Allo MSC) is 2.8 fold and 2.4 fold; in assay [1] (stroma auto MSC), 6.5 fold and 8.9 fold. Besides, the “fold increase in ΔMGMT/untransduced CFU IC90” value in assay [1] (stroma Allo MSC) was >6 fold and >5.3 fold; in assay [1] (stroma FN), >10.3 fold and >6 fold; in assay [1] (stroma auto MSC) it was >10.3 fold and 17.7 fold.

Source of the values: patent US8318495B1, “Hematopoietic progenitor cell gene transduction” (Case Western Reserve University, priority 1998, dated 2012).
